Assay results published in ChEMBL document CHEMBL1201862, “PubChem BioAssay data set” (2004).
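Values below derive from 48-hour exposures of cells grown in 96-well plates, with endpoints linearly interpolated between the two concentrations bracketing the appropriate inhibition level. Here, GI50 denotes the concentration required for 50% inhibition of growth.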 The source made the active and inactive calls. Cut-off read from the data, not from the text of the source: active = GI50 up to about 1.1 µM and inactive = higher.

Key:
Assay in all cases: inhibition of tumour cell growth, NCI panel, 48 h
EKVX = tested on: EKVX
SF-539 = tested on: SF-539
KM12 = tested on: KM12
U-251 = tested on: U-251
A498 = tested on: A498
SN12C = tested on: SN12C
OVCAR-8 = tested on: OVCAR-8
HCT-15 = tested on: HCT-15
SK-MEL-2 = tested on: SK-MEL-2
NCI-H522 = tested on: NCI-H522
SF-295 = tested on: SF-295
SF-268 = tested on: SF-268
OVCAR-3 = tested on: OVCAR-3
MCF7 = tested on: MCF7
PC-3 = tested on: PC-3
UACC-62 = tested on: UACC-62
HT-29 = tested on: HT-29
OVCAR-4 = tested on: OVCAR-4
NCI-H23 = tested on: NCI-H23
CCRF-CEM = tested on: CCRF-CEM
UACC-257 = tested on: UACC-257
HOP-92 = tested on: HOP-92
MDA-MB-231 = tested on: MDA-MB-231
MDA-N = tested on: MDA-N
HCT-116 = tested on: HCT-116
OVCAR-5 = tested on: OVCAR-5
NCI/ADR-RES = tested on: NCI/ADR-RES
SK-MEL-28 = tested on: SK-MEL-28
LOX IMVI = tested on: LOX IMVI
NCI-H460 = tested on: NCI-H460
UO-31 = tested on: UO-31
SNB-19 = tested on: SNB-19
HOP-62 = tested on: HOP-62
SNB-75 = tested on: SNB-75
MOLT-4 = tested on: MOLT-4
HCC 2998 = tested on: HCC 2998
786-0 = tested on: 786-0
MDA-MB-435 = tested on: MDA-MB-435
T47D = tested on: T47D
A549 = tested on: A549
RPMI-8226 = tested on: RPMI-8226
RXF 393 = tested on: RXF 393
M14 = tested on: M14
SW-620 = tested on: SW-620
COLO 205 = tested on: COLO 205
K562 = tested on: K562
IGROV-1 = tested on: IGROV-1
Hs-578T = tested on: Hs-578T
NCI-H226 = tested on: NCI-H226
SK-MEL-5 = tested on: SK-MEL-5
SR = tested on: SR
SK-OV-3 = tested on: SK-OV-3
DU-145 = tested on: DU-145
TK-10 = tested on: TK-10
Malme-3M = tested on: Malme-3M
ACHN = tested on: ACHN
CAKI-1 = tested on: CAKI-1
BT-549 = tested on: BT-549
HL-60 = tested on: HL-60

Compound: CSc1nc(C)c2c(n1)N(c1ccc(Cl)cc1)CC2
- GI50 (EKVX): > 100 µM (inactive)
- GI50 (SF-539): 70.8 µM (inactive)
- GI50 (KM12): > 100 µM (inactive)
- GI50 (U-251): > 100 µM (inactive)
- GI50 (A498): > 100 µM (inactive)
- GI50 (SN12C): > 100 µM (inactive)
- GI50 (OVCAR-8): > 100 µM (inactive)
- GI50 (HCT-15): > 100 µM
- GI50 (SK-MEL-2): > 100 µM (inactive)
- GI50 (NCI-H522): > 100 µM (inactive)
- GI50 (SF-295): > 100 µM (inactive)
- GI50 (SF-268): > 100 µM (inactive)
- GI50 (OVCAR-3): > 100 µM (inactive)
- GI50 (MCF7): > 100 µM (inactive)
- GI50 (PC-3): > 100 µM (inactive)
- GI50 (UACC-62): > 100 µM (inactive)
- GI50 (HT-29): > 100 µM (inactive)
- GI50 (OVCAR-4): 61.4 µM (inactive)
- GI50 (NCI-H23): > 100 µM (inactive)
- GI50 (CCRF-CEM): > 100 µM (inactive)
- GI50 (UACC-257): > 100 µM (inactive)
- GI50 (HOP-92): > 100 µM (inactive)
- GI50 (MDA-MB-231): 42.3 µM (inactive)
- GI50 (MDA-N): > 100 µM (inactive)
- GI50 (HCT-116): > 100 µM (inactive)
- GI50 (OVCAR-5): > 100 µM (inactive)
- GI50 (NCI/ADR-RES): > 100 µM (inactive)
- GI50 (SK-MEL-28): > 100 µM (inactive)
- GI50 (LOX IMVI): > 100 µM (inactive)
- GI50 (NCI-H460): > 100 µM (inactive)
- GI50 (UO-31): 0.342 µM (active)
- GI50 (SNB-19): > 100 µM (inactive)
- GI50 (HOP-62): > 100 µM (inactive)
- GI50 (SNB-75): 0.0946 µM (active)
- GI50 (MOLT-4): > 100 µM (inactive)
- GI50 (HCC 2998): > 100 µM (inactive)
- GI50 (786-0): 77.1 µM (inactive)
- GI50 (MDA-MB-435): > 100 µM (inactive)
- GI50 (T47D): > 100 µM (inactive)
- GI50 (A549): > 100 µM (inactive)
- GI50 (RPMI-8226): > 100 µM (inactive)
- GI50 (RXF 393): > 100 µM (inactive)
- GI50 (M14): > 100 µM (inactive)
- GI50 (SW-620): > 100 µM (inactive)
- GI50 (COLO 205): > 100 µM (inactive)
- GI50 (K562): 88.3 µM (inactive)
- GI50 (IGROV-1): > 100 µM (inactive)
- GI50 (Hs-578T): > 100 µM (inactive)
- GI50 (NCI-H226): > 100 µM (inactive)
- GI50 (SK-MEL-5): > 100 µM (inactive)
- GI50 (SR): > 100 µM (inactive)
- GI50 (SK-OV-3): > 100 µM (inactive)
- GI50 (DU-145): > 100 µM (inactive)
- GI50 (TK-10): > 100 µM (inactive)
- GI50 (Malme-3M): > 100 µM (inactive)
- GI50 (ACHN): > 100 µM (inactive)
- GI50 (CAKI-1): > 100 µM (inactive)

Compound: C/C=C/[C@H]1O[C@@](O)([C@@H](C)[C@H](O)[C@H](C)[C@H]2OC(=O)/C(OC)=C/C(C)=C/[C@@H](C)[C@@H](O)[C@@H](CC)[C@@H](O)[C@H](C)C/C(C)=C/C=C/[C@@H]2OC)C[C@H](OC2CC(O)C(OC(N)=O)C(C)O2)[C@@H]1C (some centres undefined)
- GI50 (EKVX): 0.0719 µM (active)
- GI50 (SF-539): 0.0224 µM (active)
- GI50 (KM12): < 0.0163 µM (active)
- GI50 (U-251): < 0.0281 µM (active)
- GI50 (A498): 18.8 µM (inactive)
- GI50 (SN12C): 5.65 µM (inactive)
- GI50 (OVCAR-8): 0.0474 µM (active)
- GI50 (HCT-15): 0.0426 µM
- GI50 (SK-MEL-2): 0.0195 µM (active)
- GI50 (BT-549): 0.0843 µM (active)
- GI50 (NCI-H522): 0.0399 µM (active)
- GI50 (SF-295): 0.0248 µM (active)
- GI50 (SF-268): 0.0447 µM (active)
- GI50 (OVCAR-3): < 0.0181 µM (active)
- GI50 (MCF7): 0.0293 µM (active)
- GI50 (PC-3): < 0.01 µM (active)
- GI50 (UACC-62): 0.0231 µM (active)
- GI50 (HT-29): < 0.01 µM (active)
- GI50 (OVCAR-4): 0.0791 µM (active)
- GI50 (NCI-H23): 7.13 µM (inactive)
- GI50 (CCRF-CEM): < 0.01 µM (active)
- GI50 (UACC-257): 0.0641 µM (active)
- GI50 (MDA-MB-231): 0.678 µM (active)
- GI50 (HCT-116): 0.017 µM (active)
- GI50 (OVCAR-5): 11.9 µM (inactive)
- GI50 (NCI/ADR-RES): 0.759 µM (active)
- GI50 (SK-MEL-28): 0.74 µM (active)
- GI50 (LOX IMVI): < 0.01 µM (active)
- GI50 (NCI-H460): < 0.0111 µM (active)
- GI50 (UO-31): 0.0479 µM (active)
- GI50 (SNB-19): 8.22 µM (inactive)
- GI50 (HOP-62): < 0.0249 µM (active)
- GI50 (SNB-75): 0.525 µM (active)
- GI50 (MOLT-4): < 0.01 µM (active)
- GI50 (HCC 2998): 0.0787 µM (active)
- GI50 (786-0): 0.0183 µM (active)
- GI50 (MDA-MB-435): 0.0275 µM (active)
- GI50 (T47D): 0.0333 µM (active)
- GI50 (A549): < 0.0181 µM (active)
- GI50 (RPMI-8226): < 0.0157 µM (active)
- GI50 (RXF 393): 8.87 µM (inactive)
- GI50 (M14): < 0.0161 µM (active)
- GI50 (SW-620): < 0.022 µM (active)
- GI50 (COLO 205): 0.0334 µM (active)
- GI50 (K562): 0.024 µM (active)
- GI50 (IGROV-1): 0.0458 µM (active)
- GI50 (Hs-578T): 12.4 µM (inactive)
- GI50 (NCI-H226): 0.0336 µM (active)
- GI50 (SK-MEL-5): 0.0142 µM (active)
- GI50 (SR): < 0.01 µM (active)
- GI50 (SK-OV-3): 12.8 µM (inactive)
- GI50 (DU-145): 0.914 µM (active)
- GI50 (TK-10): 17.3 µM (inactive)
- GI50 (Malme-3M): 0.122 µM (active)
- GI50 (ACHN): 0.0286 µM (active)
- GI50 (CAKI-1): 0.0532 µM (active)
- GI50 (HL-60): < 0.01 µM (active)
